In a melting point compilation (Tetko et al.; mined from patent text by program, amines drawn as free bases though some values may be those of a salt):

SMILES | melting point [°C]
O=c1[nH]nc(COc2ccccc2)s1 | 104 to 105
CSc1ccc2c(c1)C(=O)OC2=O | 157 to 160
CC1(CNC(=O)OCc2ccc(Cl)cc2)Cn2cc([N+](=O)[O-])nc2O1 (stereo unspecified) | 221 to 222
O=C(c1ccccc1)C(Br)OCc1ccc(Cl)cc1Cl (stereo unspecified) | 89 to 91
Nc1c(-c2ccc(Cl)cc2)nnn1-c1ccc(C(F)(F)F)cc1F | 170
CCOC(=O)COc1ccc(NC(=O)OC(C)(C)C)cc1OC | 81 to 83
ClCc1nnnn1C1CCCCC1 | 101 to 104
COc1cc2nccc(CC(=O)O)c2cc1OC | > 250
O=S(=O)(Cl)c1c(Cl)sc(Cl)c1Cl | 55
CC(=O)OCC1OC(n2c(=S)[nH]c3cc(Cl)c(Cl)cc32)C(OC(C)=O)C1OC(C)=O (stereo unspecified) | 241
O=C(O)C(CCO)N1CCCC1=O (stereo unspecified) | 123 to 124
COc1ccc(CNc2ncnc(Cl)c2N)cc1 | 187 to 188
CC(C)CCCC(C)(C)NC(=O)CN1C(=O)c2ccccc2C1=O | 162 to 163
CSc1nc(C)c(Cl)c(Cl)n1 | 49 to 50
C#Cc1ccc2c(c1)C=C(C(=O)O)C(C(F)(F)F)O2 (stereo unspecified) | 198 to 200
COC(=O)CC(=O)C[C@@H]1CC(=O)N1 | 45 to 46.5
NS(=O)(=O)c1ccccc1CCC(F)(F)F | 148 to 149
O=[N+]([O-])c1ccc(C2SCCCS2)c(CO)c1 | 130 to 131
CC(=O)OCc1cc(N)ccc1N1C(=O)c2ccc(Cl)cc2C1=O | 136 to 138
Cc1nc2c(N)cc(S(=O)(=O)N(C)C)cc2n1C | 255 to 258
CC(C(=O)O)c1ccc(-c2ccccc2)cc1 (stereo unspecified) | 144 to 145
CC1(c2ccc(N)cc2F)CNC1=O (stereo unspecified) | 125 to 127
ON=C(c1ccc(O)c(Cl)c1Cl)c1cccc2ccccc12 | 145 to 160
CC(C)(CNC(=O)C(C)(C)CCC(=O)O)SN=O | 100 to 101
Nc1ccc(C(=O)O)c(C(=O)O)c1 | 188
Clc1ncccc1-c1cccnc1 | 92 to 93.5

SMILES | melting point [°C]
CCOC(=O)/C=C/c1cccc(C(F)(F)F)c1 | 40 to 41
COC(=O)NC(=NS(=O)(=O)NC(C)C)SCc1ccccc1 | 76 to 78
O=C(Nc1c[nH]nc1C(=O)NCCO)c1ccccn1 | 155 to 156
COc1ccc(NC(=O)c2ccc(Cl)c(Cl)c2)cc1[N+](=O)[O-] | 215 to 218
CCc1nn(-c2ccc(F)cc2)c2c1C(C)N(C)C2=O (stereo unspecified) | 65
O=C1CN(SC(Cl)(Cl)Cl)C(=O)N1SC(Cl)(Cl)Cl | 142
CC(C#CCOc1cccc(Oc2cccnc2)c1)N(O)C(N)=O (stereo unspecified) | 131 to 132
COc1ccc(CCNC(=O)C(=O)NCCCCCCNC(=O)OC(C)(C)C)cc1OC1CCCC1 | 135 to 137
COc1cccc(CN[C@@H](C)C2CCCCC2)c1O | 65 to 66
Cn1c(=O)c(=O)n(Cc2ccc(Cl)cc2Cl)c2cc(C(=O)O)ccc21 | 320 to 322
S=C(NCCC1=CCCCC1)Nc1nccs1 | 147 to 148
O=[N+]([O-])c1ccc(NCCC23CCCN2CCC3)c2ccccc12 | 90 to 91
CC1=C(C(=O)OC(C)(C)C)C(c2ccc(F)c(Br)c2)C(C(=O)OC(C)(C)C)=C(C)N1 | 171 to 172
FC(F)Sc1nnc(-c2cccs2)s1 | 63 to 64
CCCc1ncc2cc(OC)nc(SC)n12 | 98 to 100
Cc1noc(NS(=O)(=O)c2cccc(C(F)(F)F)c2)c1Br | 113 to 115
CCN(CC)CCOC1CCC2C3CCc4cc(OC)ccc4C3CCC12CC (stereo unspecified) | 66 to 67
C[C@H](CO)Nc1nc(SCc2cccc(F)c2F)nc2[nH]c(=O)cnc12 | 215 to 217
O=C(O)c1ccc(NC(c2ccc(Cl)cc2)c2ccc(Cl)cc2)cc1 | 245 to 247
CCCc1nc2ccc(Cl)nc2c(=O)[nH]1 | 264 to 266
Fc1ccc(/C=C/c2nc(COc3cccc(CCCn4ccnn4)c3)co2)c(F)c1 | 89 to 90
CCCCCCCNC(=O)N(C)c1cccc(-c2ccc(C=CC(=O)O)cc2)c1 | 125 to 126
CCOC(=O)C(=Cc1cccc([N+](=O)[O-])c1)C(C)=O | 103 to 106
CCOC(=O)COc1c2ccccc2cc2c1c(C(=O)C(N)=O)c(CC)n2Cc1ccccc1 | 130 to 131
NC(=O)COc1cccc(NC(=O)c2cc(-c3cccc(F)c3)ccc2F)c1 | 203 to 206

The remaining lines, values ahead:

melting point [°C] | SMILES
151 to 155 | CN(C)C1CCN(c2nc(N3CCOCC3)c3ncnc(N(CC(=O)O)Cc4ccccc4)c3n2)CC1
131 to 132 | CCOc1nc(Cl)nc2c1oc1nc(-c3ccccc3)cc(C)c12
95.1 | Nc1ncc(-c2ccccc2-c2ncccn2)c(N)n1
88 to 90 | CCCCOC(=O)c1c(Cl)nc(CCCC)n1Cc1ccc2oc(-c3ccccc3-c3nnn[nH]3)c(Br)c2c1
120 | Cc1cc(-n2ccnc2)c2cccc(OCc3c(Cl)ccc(S(=O)(=O)N4CCC[C@H]4C(=O)NCCCN4CCCC4)c3Cl)c2n1
153 to 155 | O=C(O)/C=C/c1ccc(OCc2ccccc2)cc1OCc1ccccc1
267 to 270 | Cn1c(-c2ccccc2)nc2nc(-c3ccc(Cl)cc3)nn2c1=S
178 to 179 | O=C(/C=C/c1ccc(S(=O)(=O)N2CCN(c3cccc(C(F)(F)F)c3)CC2)cc1)NO
291 to 294 | O=C1NC(=O)C2(CCN(Cc3ccccc3)CC2)O1
80 to 81 | CN(CCOc1ccc(/C=C/CO)cc1F)c1ccccn1
136 to 138 | COc1ccc2c(c1)OC(=O)C(C)(C#Cc1ccccc1)C2 (stereo unspecified)
101 to 102 | COc1ccc(C(=O)N(C)C)c(-c2ccccc2)c1OC
197 to 199 | O=C(Cc1c(Br)cnc2c(NC(=O)c3c(Cl)cccc3Cl)cccc12)NCc1ccccn1
> 270 | CCn1c(=O)c2[nH]c(/C=C/c3ccc(-c4ccccc4)cc3)nc2n(CC)c1=O
264 to 266 | CC(CCCn1c(C)nc2c(N)nc3ccccc3c21)=NO
202 to 203 | NC(=O)N1C(=O)C(=C(OCCc2ccccc2)c2cccs2)c2cc(F)c(Cl)cc21
102 to 103 | CCOC(=O)c1c(C)cc2ncn(-c3ccccc3)c(=O)c2c1C
70 to 72 | CCO[C@@H]1[C@@H](OC)[C@H](C)O[C@@H](OC(=O)N(C(C)=O)c2ccc(-c3ncn(-c4ccc(OC(F)(F)C(F)(F)F)cc4)n3)cc2)[C@@H]1OC
103 to 105 | NC1N=C(N2CCCCC2)c2ccccc2NC1=O (stereo unspecified)
178 to 180 | Cc1cccc(C)c1-n1cnc(OC(C)C(=O)O)n1 (stereo unspecified)
227 | CN1CCN(c2ccc(Nc3ncc4ccc(-c5ccc(S(C)(=O)=O)cc5)n4n3)cc2F)CC1
121 | Cc1cc(C)cc(C(=O)N2CCC(N3CCC(NC(=O)c4ccccc4N)CC3)CC2Cc2ccccc2)c1 (stereo unspecified)
263 to 267 | COc1ccc2c(c1)c(-c1cc3nccnc3[nH]1)cn2CC(=O)N1CCOCC1
194 to 195 | O=C(O)c1cc2c3ccccc3n(Cc3ccccc3)c2s1
167 to 168 | CCCn1c(=O)nc(SC)c2c1ncn2COCc1ccccc1
